Test results taken from US20240424043A1, “COMPOSITION FOR PREVENTING OR TREATING MUSCLE DISEASE COMPRISING ARALIA ELATA EXTRACT” (KOREA INSTITUTE OF SCIENCE AND TECHNOLOGY, priority 2023, published 2024).

Experiments:
C2C12 myotubes [1] = assay: Oxidative stress (GSH content) and mitochondrial function in dexamethasone-treated myotubes; format: cell-based, mouse; conditions: 20 μM compound, 100 μM dexamethasone for 24 hours, FIG. 8; for glutathione (GSH) content: decreased by dexamethasone
Method: (§1) Cell culture and differentiation of myoblasts: C2C12 mouse (CRL1772; American type cell collection, USA) derived myoblasts were cultured in Dulbecco's Modified Eagle's Medium (DMEM) medium supplemented with 10 (v/v) % FBS, and after reaching 90% confluence, they were transferred to DMEM medium containing 2 (v/v) % horse serum and cultured for 7 days to differentiate into myotubes.
As in Example 4, C2C12 myoblasts were differentiated into myotubes, and then treated with 100 μM of dexamethasone for 24 hours to induce oxidative stress or mitochondrial dysfunction, and then treated with 20 μM of three compounds (catechol, 4-ethyl catechol, and methyl dihydroxycaffeate) isolated from the extract of Aralia Elata to determine their efficacy in ameliorating oxidative stress and mitochondrial dysfunction. […] Furthermore, the mitochondrial dysfunction induced by dexamethasone treatment was ameliorated by treatment with the present compound derived from the extract of Aralia Elata (FIG. 8).

[2] = system: Ppargc1a, UCp3, Tomm20, and Tfam gene expression in C2C12 mouse-derived endodermal cells; assay: RT-qPCR of exercise performance-related gene expression; format: cell-based; conditions: dexamethasone 10 μM, beta-actin control, reduced by dexamethasone, FIG. 9
Method: (§2) C2C12 mouse-derived endodermal cells treated with dexamethasone 10 μM were washed twice with PBS, and total RNA was extracted according to the user-recommended protocol of an RNA extraction kit (GeneAll RNA isolation kit, Seoul, South Korea). cDNA was synthesized from the extracted RNA, and subjected to real time-quantitative polymerase chain reaction (RT-qPCR). PCR analysis was performed according to the user-recommended cycling conditions of the analyzer (Applied Biosystems 7900 HT thermal cycler, Applied Biosystems). To determine the expression level of each mRNA, fold change values relative to the control were calculated using beta-actin as an endogenous control, and relative expression levels were compared.

[3] = system: Ppargc1a, UCp3, Tomm20, and Tfam gene expression in C2C12 mouse-derived cells; assay: as above; format: cell-based; conditions: dexamethasone 10 μM, beta-actin control, reduced by dexamethasone, FIG. 9
Method: as §2

[4] = system: Mstn, Myd1, Myog, and Myf5 gene expression in C2C12 mouse-derived myotubes; assay: RT-qPCR of muscle cell differentiation-related gene expression; format: cell-based; conditions: dexamethasone 10 μM, beta-actin control, FIG. 7; for Mstn gene expression (marker of muscle growth inhibition): increased by dexamethasone; for Myd1 gene expression (marker of myogenic differentiation) / Myf5 gene expression (marker of myogenic differentiation) / Myog gene expression (marker of myogenic differentiation): reduced by dexamethasone
Method: as §2, with “mouse-derived myotubes” for “mouse-derived endodermal cells”, “extracted RNA” for “extracted RNA,”, “(RT-qPCR). POR” for “(RT-qPCR). PCR”

C2C12 myotubes [5] = assay: Myotube cell survival rate after dexamethasone-induced myoatrophy; format: cell-based, mouse; conditions: 20 μM compound; 100 μM dexamethasone for 24 hours; FIG. 5
Method: as §1
C2C12 myoblasts were differentiated into myotubes, and then treated with 100 μM of dexamethasone for 24 hours to induce myoatrophy, and 20 μM of 13 compounds isolated from the extract (see Table 1) to determine the effect of alleviating myoatrophy.

[6] = system: mice in which sarcopenia was induced by administration of Dexamethasone; assay: Grip strength and body weight in dexamethasone-induced sarcopenia mouse model; format: in vivo, C57BL/6J mice; conditions: compared to the group treated only with Dexamethasone (25 mg/kg i.p., 2 weeks); oral once daily 4 weeks; AE 10, 50 or 100 mg/kg, S-23 25 mg/kg; FIG. 2
Method: The present inventors created a sarcopenia mouse model to confirm the effectiveness of Aralia Elata extract prepared in the above-described preparation example to treat or improve sarcopenia, and measured grip strength using the control mouse and the sarcopenia mouse model.
The mice used to confirm the efficacy of Aralia Elata extract were prepared through the following process.
The test substance was prepared in the form of a liquid suspension using 0.5% CMC and administered for 4 weeks. To correct for the placebo effect of 0.5% CMC and the weight loss effect due to administration stress, 0.5% CMC was orally administered daily to the vehicle control group. Two weeks after administration of the test substance, the experimental group was administered intraperitoneal injection of Dexamethasone for two weeks to induce sarcopenia, and the normal control group was administered saline solution by intraperitoneal injection. All mice were provided with the same AlN76 diet (Research Diets), and the test substances were administered for an additional 2 weeks for a total of 4 weeks. The dark: light cycle was maintained at 12-hour:12-hour intervals, and water was allowed to be consumed freely. […] (Dex: Dexamethasone sarcopenia-inducing substance (25 mg/kg), AE: Aralia Elata extract (10, 50, or 100 mg/kg)).

Compound | mitochondrial dysfunction induced by dexamethasone treatment (C2C12 myotubes [1]) | glutathione (GSH) content (C2C12 myotubes [1]) | Tfam gene expression [2] | Tomm20 gene expression [2] | UCp3 gene expression [2] | Ppargc1a gene expression [3] | Mstn gene expression (marker of muscle growth inhibition) [4] | Myd1 gene expression (marker of myogenic differentiation) [4] | Myf5 gene expression (marker of myogenic differentiation) [4] | Myog gene expression (marker of myogenic differentiation) [4] | viability of myotubes reduced by dexamethasone treatment (C2C12 myotubes [5]) | body weight [6] | grip strength [6]
CCc1ccc(O)c(O)c1 [4-ethyl catechol] | ameliorated | increased again | increased | increased | increased | increased | decreased | increased | increased | increased | – | – | –
Oc1ccccc1O [Compound 3, Catechol] | ameliorated | increased again | increased | increased | increased | increased | decreased | increased | increased | increased | significantly superior effect | – | –
CCc1ccc(O)c(O)c1 [Compound 4, 4-ethyl catechol] | – | – | – | – | – | – | – | – | – | – | significantly superior effect | – | –
C[C@](O)(COc1ccc(Cl)c(F)c1)C(=O)Nc1ccc(C#N)c(C(F)(F)F)c1 [Compound S-23] | – | – | – | – | – | – | – | – | – | – | – | increased | increased
